Source: patent US8143223B2, “Cytoprotection by means of phosphotyrosine” (Eberhard-Karls-Universitaet Tuebingen Universitaetsklinikum, priority 2001, dated 2012)

What was measured:
[1] = tested on: untransformed fibroblasts (HSF1); assay: Clonogenic assay comparing the radioprotective effect of phosphorylated amino acids, 4 Gy; type: cell-based, human; conditions: 10 μM for 16 hours, then 4 Gy ionizing irradiation, FIG. 3
[2] = tested on: normal skin fibroblasts (HSF6); assay: Clonogenic assay after P-Tyr pretreatment and ionizing irradiation at 0 to 6 Gy; type: cell-based, human; conditions: 10 μM P-Tyr for 16 hours, up to 6 Gy, FIG. 4
Description: (§1) For the radioactive irradiation, the cells are irradiated with 4 MV photons using a “Linac” (Mevatron^60/Siemens, Erlangen, Germany) using a dose rate of 2 Gy/min at room temperature, as described (Dittmann et al. “Bowman-Birk Proteinase inhibitor modulates radiosensitivity and radiation-induced differentiation of human fibroblasts in culture”, Radiother. Oncol. 34, pages 137-143, 1995).
(§2) The cells, which are cultured as described in Example 1 and which are either incubated with the cell-damaging factors as described in Example 2 or remain untreated as controls, are freed from medium, washed and detached from the substrate using 0.05% trypsin and 0.1% EDTA. For the purpose of analyzing colony formation, the detached cells are plated at a constant cell density of 1500 cells per 78 cm^2 dish. […]
(§3) In this connection, a colony is a mass of cells which develops, during the 14 days of culture, from a single cell as a result of consecutive cell divisions. […] If many cells die during the treatment with the cell-damaging factors, only a few colonies are then formed after 14 days; if many cells survive, many colonies can then be counted after the 14 days of culture. […]
(§4) After the 14 days of culture, the cells are fixed, stained and counted as described (Dittmann et al., 1995, loc. cit.). When determining clonogenic survival, the colonies containing more than 50 cells are counted per plate. […]

[3] = tested on: normal lung fibroblasts (CCD32); assay: as above; type: cell-based, human; conditions: 10 μM P-Tyr for 16 hours, up to 6 Gy, FIG. 4
Description: as §1, §2, §3, §4

[4] = tested on: HTB-35 squamous carcinoma cell line; assay: as above; type: cell-based, human; conditions: 10 μM P-Tyr for 16 hours, FIG. 4
From the text: (§5) In addition, it is possible to use the human squamous carcinoma cell lines HTB-35 (ATCC, which is derived from a cervical carcinoma, passage unknown, used in passage 10 after receipt) (Srivastava et al., “The status of the p53 gene in human papilloma virus positive or negative cervical carcinoma cell lines”, Carcinogenesis 13, pages 1273-1275, 1992) and HTB-43 (ATCC, is derived from a hypopharyngeal tumor, passage 124). Both carcinoma cell lines are characterized by a point mutation in the p53 gene (Kim et al., “State of p53, Rb and DCC tumor suppressor genes in human oral cancer cell lines”, Anticancer Research, pages 1405-1413, 1993). […]
as §3, §4

[5] = tested on: HTB-43 squamous carcinoma cell line; assay: as above; type: cell-based, human; conditions: 10 μM P-Tyr for 16 hours, FIG. 4
From the text: as §5, §3, §4

[6] = tested on: normal skin fibroblasts (HSF6); assay: Clonogenic assay after P-Tyr pretreatment and ionizing irradiation at 4 Gy, different P-Tyr doses; type: cell-based, human; conditions: FIG. 2B
Description: as §1, §2, §3, §4

[7] = tested on: transformed HH4dd fibroblasts; assay: as above; type: cell-based, human; conditions: FIG. 2B
Description: as §1, §2, §3, §4

[8] = tested on: normal skin fibroblasts (HSF6); assay: Clonogenic assay after P-Tyr pretreatment alone, no cell-damaging treatment; type: cell-based, human; conditions: P-Tyr alone for 16 hours at up to 2000 μM, FIG. 2A
Description: Human fibroblasts (cell strains HSF1 and HSF6, which are derived from human skin, passages 9 to 15; CCD32, which is derived from embryonic lung tissue, passages 9 to 11) are particularly well suited for investigating the cytoprotective properties of the phosphotyrosine.
The cells are cultured in Dulbecco's modified Eagle's medium (DMEM) supplemented with 10% fetal calf serum (FCS) (GIBCO/BRL, Eggenstein, Germany, article No. 40G7285K) (=normal medium), under standard conditions. […]
as §3, §4
(§6) The result of such a clonogenic assay is expressed as “relative cytoprotection” or in “% number of the clones”, with the number of the colonies formed in the different assays being related to each other. […]

[9] = Inventors' investigations of the concentration range of the cytoprotective effect; type: cell-based; conditions: investigations carried out by the inventors
Description: In the culture medium according to the invention it is preferred to use phosphotyrosine in a concentration range of from 1 to 100 μM. Thus, investigations carried out by the inventors have shown that the cytoprotective effect of the phosphotyrosine is particularly high in this range.

[10] = tested on: liver carcinoma cell line and arc-transformed NIH 3T3 cells; conditions: Mishra and Hamburger, Cancer Letters 1996; cited from earlier work
[11] = tested on: normal, untransformed fibroblasts (HSF1); assay: Clonogenic assay after P-Tyr pretreatment and cisplatin treatment; type: cell-based, human; conditions: 10 μM P-Tyr for 16 hours, then 1 μg of cisplatin/ml for one hour, versus cells not pretreated, FIG. 6A
Description: (§7) The incubation with cisplatin take place at a concentration of 1 μg of cisplatin/ml (cis-diammine platinum(II-dichloride); Sigma, Munich, Germany).
(§8) The cells, which are cultured as described in Example 1 and which are either incubated with the cell-damaging factors as described in Example 2 or remain untreated as controls, are freed from medium, washed and detached from the substrate using 0.05% trypsin and 0.1% EDTA. For the purpose of analyzing colony formation, the detached cells are plated at a constant cell density of 1500 cells per 78 cm^2 dish. The plated cells were then incubated for 14 days in normal medium additionally containing 20% FCS. This period of time enabled colony formation to take place.
(§9) In this connection, a colony is a mass of cells which develops, during the 14 days of culture, from a single cell as a result of consecutive cell divisions. This colony is also termed a clone. […] If many cells die during the treatment with the cell-damaging factors, only a few colonies are then formed after 14 days; if many cells survive, many colonies can then be counted after the 14 days of culture. […]
as §4

[12] = tested on: transformed fibroblasts (HH4dd); assay: as above; type: cell-based, human; conditions: 10 μM P-Tyr for 16 hours, then 1 μg of cisplatin/ml for one hour, FIG. 6B
Description: as §7, §8, §9, §4

[13] = tested on: normal, untransformed fibroblasts (HSF1); assay: Clonogenic assay after P-Tyr pretreatment and UVB irradiation; type: cell-based, human; conditions: 10 μM P-Tyr for 16 hours, then 200 J of UVB, assayed 7 hours later, FIG. 5A
Description: (§10) The cells are irradiated with UV light (312 nm) at a dose rate of 450 J/m^2 per minute using a UVB lamp (Bioblock Scientific, Illkirch Cedex, France).
as §8, §9, §4

[14] = tested on: transformed fibroblasts (HH4dd); assay: as above; type: cell-based, human; conditions: 10 μM P-Tyr for 16 hours, then 200 J of UVB, FIG. 5B
Description: as §10, §8, §9, §4

[15] = tested on: transformed fibroblast cell line HH4dd; assay: Clonogenic assay after P-Tyr pretreatment alone, no cell-damaging treatment; type: cell-based, human; conditions: FIG. 2A
From the text: Transformed human fibroblasts, e.g., the cell line HH4dd (is derived from human skin, passages 65 to 70), are also suitable for the investigation. This cell line is derived from the normal cell strain HH4 and is likewise characterized by a p53 mutation (Dittmann et al., “The radioprotective effect of BBI is associated with the activation of DNA-repair relevant genes”, Int. J. Radiat. Biol. 74, pages 225-230, 1998). HH4dd grows in soft agar, is characterized by its aneuploidy and induces tumors in nude mice. […]
as §3, §4, §6

[16] = tested on: human breast and kidney carcinoma cells; conditions: Mishra and Hamburger 1993; P-Tyr dose-dependent; run at 1.67 mM, some at 16.7 mM; cited from earlier work

## C[C@@H](OP(=O)(O)O)[C@H](N)C(=O)O [P-Thr, phosphothreonine, reference compound]
[1]
  radioprotection (clonogenic assay): did not result in any radioprotection

## N[C@@H](Cc1ccc(OP(=O)(O)O)cc1)C(=O)O [P-Tyr, O-phospho-L-tyrosine (L-3-[4-hydroxy-phenyl]alanine-4′-phosphate)]
[2]
  clonogenic survival after ionizing irradiation: significant increase in clonogenic survival
[3]
  clonogenic survival after ionizing irradiation: significant increase in clonogenic survival
[4]
  clonogenic survival after ionizing irradiation: significant reduction in clonogenic survival
[5]
  clonogenic survival after ionizing irradiation: significant reduction in clonogenic survival
[6]; ionizing irradiation at 4 Gy
  P-Tyr concentration at which maximum survival was achieved: 10 µM
[6]; phosphotyrosine plus ionizing irradiation at 4 Gy
  clonogenic survival after ionizing irradiation: clear increase in clonogenic survival
[7]; transformed HH4dd fibroblasts, same treatment
  clonogenic survival after ionizing irradiation: no increase in clonogenic survival was observed
[7]; transformed fibroblasts, 2000 pM P-Tyr
  toxicity of the radiation: significant increase in the toxicity of the radiation
[8]
  effect on clonogenic survival: does not have any effect on the clonogenic survival
[1]
  radioprotection (clonogenic assay): significant radioprotection
[9]
  concentration range in which the cytoprotective effect is particularly high: 1 to 100 µM
[10]
  cell growth of liver carcinoma cell line and arc-transformed NIH 3T3 cells: inhibit cell growth
[11]
  increase in clonogenic survival after cisplatin incubation: 38.7%
[12]
  clonogenic survival after cisplatin treatment: did not lead to any increase in clonogenic survival
[13]
  increase in clonogenic survival after UVB irradiation: 37%
[14]
  effect on clonogenic survival after UVB irradiation: no effect on the clonogenic survival
[15]
  effect on clonogenic survival: no effect was seen on clonogenic survival
[16]
  growth of human breast and kidney carcinoma cells: inhibits the growth
